Assay results taken from patent US11512073B2, “Benzimidazole derivatives, pharmaceutical composition comprising the same, and use thereof” (Chongqing University of Arts and Sciences, priority 2020, dated 2022).

Experiments:
[1] = test system: MDA-MB-468 cells; assay: Annexin V-FITC/PI apoptosis assay by flow cytometry; format: cell-based, Human; settings: 48 h, dose-dependent; from 5.02% in control; p<0.01
Protocol: (§1) Cells in a logarithmic growth phase were harvested and seeded into six-well plates with 30% cell density and cultured overnight in an incubator. Once adhered to the bottom of the plate, cells were treated with different doses of compound 7a for 48 h, and then employed in flow cytometry analysis. For cell cycle assay, the collected cells were washed with phosphate-buffered saline (PBS) and fixed with 70% cold ethanol in 4° C. for 24 h. After washing three times of PBS, the fixed cells were incubated in 200 μL PBS solution containing 1 μL propidium iodide (BD, CA, USA) and 1 μL RNase (Sigma Aldrich, USA) at 37° C. for 0.5 h. Finally, cells were analyzed using BD Accuri™ C6 flow cytometry (BD Biosciences, USA). For the cell apoptosis assay, after the cells were harvested and washed twice with PBS, the percentage of apoptotic cells were measured using an Annexin V-FITC/PI Apoptosis Assay Kit (BD Biosciences, USA). The BD Accuri™ C6 flow cytometry was used to analyze the apoptosis process. The FlowJo software was used to analyze the cell cycle arrest and apoptotic rate.

[2] = test system: MDA-MB-231 cells; assay: as above; format: cell-based, Human; settings: 48 h, dose-dependent; from 3.64% in control; p<0.01
Protocol: as §1

[3] = test system: TNBC cells; assay: MTT cell viability assay, statements for both TNBC lines; format: cell-based, Human; settings: MDA-MB-231 and MDA-MB-468; 24, 48 and 72 h
Protocol: Compounds were dissolved in a hydrous dimethylsulfoxide (DMSO, Life technologies) to obtain a 50 mM stock solution, which was then added to the culture medium at a concentration range of 6.25-100 μM. […] Z-VAD-FMK was purchased from Selleckchem (Houston, Tex.); The reagents including 3-(4,5-dimethylthiazol-2-yl)-2,5-diphenyltetrazolium bromide (MTT), dimethyl sulfoxide (DMSO), penicillin, streptomycin, propidium iodide (PI) were purchased from Sigma-Aldrich (MO, USA); All the primary antibodies used in this study were from Cell Signaling Technology (MA, USA) and the secondary antibodies were from LI-COR Biosciences (NE, USA).
Human triple negative breast cancer cell lines MDA-MB-231 and MDA-MB-468 were purchased from the American Type Culture Collection (ATCC, VA, USA). These cells were cultured in high-glucose DMEM (Gibco, USA) supplemented with 10% fetal bovine serum (FBS, Gibco) and 1% penicillin/streptomycin (Gibco) at 37° C. in a humidified incubator containing 5% CO2.
The antiproliferative activity of compounds was measured with the MTT assay. […] The absorbance value was determined at 570 nm using a microplate reader (Bio-Tek, VT, USA). Data were analyzed by GraphPad Prism 6. […]

[4] = test system: MDA-MB-231 and MDA-MB-468 cells; assay: Mitochondrial membrane potential (JC-1) assay; format: cell-based, Human; settings: 20 μM/L, 48 h
Protocol: The JC-1 Assay Kit (Beyotime) was used to monitor the alteration of mitochondrial membrane potential as the manufacturer's instructions. MDA-MB-231 and MDA-MB-468 cells were seeded in six-well plates with an appropriate density (2×10^5/mL) and then treated with compound 7a at various concentrations (0, 5, 10, 20 μM) for 48 h. Then 100 μL of JC-1 staining solution was added into 1 mL of medium and incubated for 20 min at cell incubator. The BD Accuri™ C6 flow cytometry was used to analyze the samples. Each experiment was carried out in triplicate, and the results were expressed as the mean±SD.

[5] = test system: MDA-MB-231 and MDA-MB-468 cells; assay: Colony forming assay; format: cell-based, Human; settings: 0, 5, 10, 20 μmol/L
Protocol: MAD-MB-231 and MDA-MB-468 cells were seeded in a six-well plate at 1000 cells/well and treated with various concentrations of compound 7a (0, 5, 10, 20 μmol/L) for 48 h. After discarding the supernatant, the cells were cultured with fresh medium for 15 days until formed the visible colonies. Finally, colonies were fixed with 4% paraformaldehyde (PFA) and stained with crystal violet for 30 min to enable enumeration of colonies.

[6] = test system: MDA-MB-231 and MDA-MB-468 cells; assay: Cell cycle analysis by flow cytometry; format: cell-based, Human; settings: 48 h
Protocol: as §1

[7] = test system: HCT116 cells; assay: mCherry-GFP-LC3B reporter autophagic flux assay; format: cell-based; settings: 12 h treatment, versus control
Protocol: Mcherry-EGFP-LC3B overexpression system was co-transfected with lenviral packaging vectors pSPAX2 and pMD2G into HEK293FT cells using Fugene Transfection Reagent (Promega, MW, USA). Virus particles were collected after 48 h infection, filtered through a 0.22 μm membrane, added into colorectal cancer cell HCT116, and then incubated for 12 h at 37° C. The medium was replaced and HCT116 cells were selected for puromycin tolerance (10 μg/mL) to obtain the stable cells expressing mcherry-EGFP-LC3B.

[8] = test system: MDA-MB-231 and MDA-MB-468 cells; assay: Immunofluorescence of γH2AX and p62; format: cell-based, Human
Protocol: Cells were plated on glass coverslips in 24-well plates prior to treatment. After being exposed to different doses of compound 7a for 48 h, cells were washed with PBS for three times, fixed with 4% paraformaldehyde-PBS for 30 min, and then followed by permeabilization with 0.1% Triton X-100 for 10 min. Next, the samples were blocked with QuickBlock Blocking Buffer for Immunol Staining (Beyotime) for 30 min at 37° C., and incubated with anti-Ki67 (1:250), anti-LC3B antibody (1:250), anti-SQSTM1 antibody (1:250) or anti-γH2AX (1:250) overnight at 4° C. After washing with PBS three times, the stained cells were incubated with Alexa Fluor-conjugated secondary antibodies (1:2000) for 1 hour at room temperature. Moreover, 1 mg/mL DAPI dissolved in PBS were employed to label nuclei (30 min). Images were captured with a High Content analysis system (Perkinelmer, MA, USA).

In the case of `O=C(NC1CCCCC1)c1[nH]cnc1-c1nc2ccccc2[nH]1` [Compound 7a], the “proportion of late-phase apoptosis” value [1] is reported as 36.4%, the “proportion of late-phase apoptosis” value [2] is reported as 34.2% and the TNBC cell viability [3] is reported as “efficiently inhibited TNBC cell viability in a time- and dose-dependent manner”. The “cells with reduced mitochondrial membrane potential” value [4] was roughly 50%, the colony formation [5] was “smaller and decreased colony numbers” and the cell cycle distribution [6] was “induced cell cycle arrest at S-phase”. For the same molecule, the “number of yellow fluorescent vesicles (autophagosomes)” value [7] was “significant increase in the number of yellow fluorescent vesicles”, the γH2AX foci ([8]; 48 h) was “accumulation of γH2AX foci in nuclei” and the “p62 signal in nuclei” value ([8]; dose-dependent) was “accumulated in the nuclei”.
